Residues, ends and D or L forms follow the SMILES beside them.

The record followed here is ChEMBL document CHEMBL1157954, “Cycloleonuripeptides E and F, cyclic nonapeptides from Leonurus heterophyllus” (2006).

In the test the test system is Aorta. The test can be described thus: Vasorelaxation activity in Wistar rat thoracic aorta assessed as inhibition of norepinephrine-induced contraction at 10^-4 M. It is filed as functional. Also on record: scale not given: the % may be the effect or the level left.

Take `CC(C)C[C@@H]1NC(=O)[C@@H]2CCCN2C(=O)[C@H](Cc2ccc(O)cc2)NC(=O)CNC(=O)[C@@H]2CCCN2C(=O)[C@@H]2CCCN2C(=O)[C@H](Cc2ccc(O)cc2)NC(=O)[C@H](Cc2ccccc2)NC(=O)[C@@H]2CCCN2C1=O` [CYCLOLEONURIPEPTIDE F] (cyclo(FYPPGYPLP)): the Activity is 40%. As to `CC[C@H](C)[C@@H]1NC(=O)[C@@H]2CCCN2C(=O)[C@H](C)NC(=O)[C@@H]2CCCN2C(=O)[C@H]([C@@H](C)O)NC(=O)[C@H](Cc2ccccc2)NC(=O)[C@H](C)NC(=O)[C@H](C)NC(=O)[C@H](C(C)C)NC1=O` [CYCLOLEONURIPEPTIDE E] (cyclo(AAFTPAPIV)), the Activity is 32%.
